≈ marks a conversion by molar mass, not a printed value. Read-outs that look alike come from different tables or passages of the source.
Tests used:
Type in all cases: cell-based
[1] = tested on: AmpC-derepressed Pseudomonas aeruginosa mutant strain (S-3028); assay: Antibacterial activity evaluation test, MIC by broth microdilution (CLSI); details: Pseudomonas aeruginosa
In short: (§1)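 Colonies grown overnight on Mueller Hinton agar, suspended to 0.5 McFarland and diluted 10-fold as inoculum. Incubation in cation-adjusted Mueller Hinton broth with test compound at 35° C for 16–20 h. MIC (μg/mL) is the lowest concentration with no visible growth.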

[2] = tested on: CTX-M-15-containing Escherichia coli strain (TK-1747); assay: as above; details: Escherichia coli
In short: as §1

[3] = tested on: GES-19 and GES-20-containing Pseudomonas aeruginosa strain (S-3759); assay: as above; details: Pseudomonas aeruginosa
In short: as §1

[4] = tested on: IMP-1-containing Pseudomonas aeruginosa strain (S-2838); assay: as above; details: Pseudomonas aeruginosa
In short: as §1

[5] = tested on: KPC-2-containing Klebsiella pneumoniae strain (Y-995); assay: as above; details: Klebsiella pneumoniae
In short: as §1

[6] = tested on: NDM-1-containing Klebsiella pneumoniae strain (Y-1007); assay: as above; details: Klebsiella pneumoniae
In short: as §1

[7] = tested on: OXA-48-containing Klebsiella pneumoniae strain (Y-1062); assay: as above; details: Klebsiella pneumoniae
In short: as §1

[8] = tested on: Pseudomonas aeruginosa strain ATCC27853; assay: as above; details: ATCC27853
In short: as §1

[9] = tested on: VIM-2-containing Pseudomonas aeruginosa strain (S-3779); assay: as above; details: Pseudomonas aeruginosa
In short: as §1

[10] = tested on: Escherichia coli TK-3113 strain producing IMP-8 (strain D); assay: MIC of test compound alone or with β-lactamase inhibitor at 4 μg/mL; details: Escherichia coli
Experimental: By using a broth microdilution method, the combinational effect of a test compound and a β-lactamase inhibitor was evaluated.
The evaluation test for antibacterial activity was performed in the same manner as in Test Example 1.
Escherichia coli TK-3113 strain producing IMP-8 (hereinafter, called strain D),
An antibacterial activity evaluation test was performed in the same manner as in Test Example 6.
As the bacterial strain, the strains B, C, and D producing β-lactamase and a Klebsiella pneumoniae Y-1069 strain (hereinafter, called strain F) producing OXA-48 and CTX-M-15 were used.

| Structure (SMILES) | MIC [1] | MIC [2] | MIC [3] | MIC [4] | MIC [5] | MIC [6] | MIC [7] | MIC ([8]; Pseudomonas aeruginosa) | MIC [9] | MIC ([10]; AVI added at 4 μg/mL) | MIC ([10]; test compound alone (β-lactamase inhibitor N/A)) | MIC ([8]; Pseudomonas aeruginosa ATCC 27853, 35° C., 16 to 20 hours, read-out: MIC) |
| --- | --- | --- | --- | --- | --- | --- | --- | --- | --- | --- | --- | --- |
| CC[C@H](O/N=C(\C(=O)N[C@@H]1C(=O)N2C[C@@](C(=O)O)(N3CCN(NC(=O)C(=O)c4ccc(O)c(O)c4Cl)C3=O)S[C@H]12)c1csc(N)n1)C(=O)O [Example 105, (3R,5R,6R)-6-((Z)-2-(2-aminothiazol-4-yl)-2-(((S)-1-carboxypropoxy)imino)acetamido)-3-(3-(2-(2-chloro-3,4-dihydroxyphenyl)-2-oxoacetamido)-2-oxoimidazolidin-1-yl)-7-oxo-4-thia-1-azabicyclo[3.2.0]heptane-3-carboxylic acid] | < 0.06 µg/mL | 0.5 µg/mL (≈ 0.675 µM) | 0.5 µg/mL (≈ 0.675 µM) | 0.25 µg/mL (≈ 0.337 µM) | 0.12 µg/mL (≈ 0.162 µM) | < 0.06 µg/mL | 0.5 µg/mL (≈ 0.675 µM) | 0.25 µg/mL (≈ 0.337 µM) | 0.25 µg/mL (≈ 0.337 µM) | – | – | – |
| CC(C)(O/N=C(\C(=O)N[C@@H]1C(=O)N2C(C(=O)[O-])=C(C[n+]3ccccc3)CS[C@H]12)c1csc(N)n1)C(=O)O [CAZ, ceftazidime hydrate, reference compound] | – | – | – | – | – | – | – | – | – | > 128 µg/mL | > 128 µg/mL | – |
| CC(C)(O/N=C(\C(=O)N[C@@H]1C(=O)N2C[C@@](C(=O)O)(N3CCN(NC(=O)C(=O)N(O)CCNC(=O)c4ccc(O)c(O)c4Cl)C3=O)S[C@H]12)c1csc(N)n1)C(=O)O [Example 104, (3R,5R,6R)-6-((Z)-2-(2-aminothiazol-4-yl)-2-(((2-carboxypropan-2-yl)oxy)imino)acetamido)-3-(3-(2-((2-(2-chloro-3,4-dihydroxybenzamido)ethyl)(hydroxy)amino)-2-oxoacetamido)-2-oxoimidazolidin-1-yl)-7-oxo-4-thia-1-azabicyclo[3.2.0]heptane-3-carboxylic acid] | 2 µg/mL (≈ 2.37 µM) | 1 µg/mL (≈ 1.19 µM) | 4 µg/mL (≈ 4.74 µM) | 0.5 µg/mL (≈ 0.593 µM) | 2 µg/mL (≈ 2.37 µM) | < 0.06 µg/mL | 2 µg/mL (≈ 2.37 µM) | – | 1 µg/mL (≈ 1.19 µM) | – | – | 2 µg/mL (≈ 2.37 µM) |
| CCC[C@H](O/N=C(\C(=O)NC1C(=O)N2C[C@@](C(=O)O)(N3CCN(NC(=O)C(=O)c4ccc(O)c(O)c4Cl)C3=O)S[C@H]12)c1csc(N)n1)C(=O)O (stereo partly drawn) [Example 115, (3R,5R,6R)-6-((Z)-2-(2-aminothiazol-4-yl)-2-(((S)-1-carboxy-butoxy)imino)aceta-mido)-3-(3-(2-(2-chloro-3,4-dihydroxy-phenyl)-2-oxoaceta-mido)-2-oxoimidazol-idin-1-yl)-7-oxo-4-thia-1-azabicyclo[3.2.0]-heptane-3-carboxylic acid] | 0.12 µg/mL (≈ 0.159 µM) | 0.25 µg/mL (≈ 0.331 µM) | 0.5 µg/mL (≈ 0.662 µM) | 1 µg/mL (≈ 1.32 µM) | 0.25 µg/mL (≈ 0.331 µM) | < 0.06 µg/mL | 1 µg/mL (≈ 1.32 µM) | 0.5 µg/mL (≈ 0.662 µM) | 0.5 µg/mL (≈ 0.662 µM) | – | – | – |

Source: US20220241249A1, “PHARMACEUTICAL COMPOSITION AND KIT CONTAINING NOVEL PENAM DERIVATIVE OR SALT THEREOF AND ONE OR MORE COMPOUNDS SELECTED FROM beta-LACTAMASE INHIBITORY COMPOUND AND ANTIBACTERIAL COMPOUND OR SALTS THEREOF” (priority 2019, published 2022)
